Values of other authors, collected in patent US20040180006A1, “Methods and compositions for blocking the calcium cascade” (priority 2003, published 2004).
Where two headings read alike, the source gives them in different places.

Experiments:
[1] = system: mast cell plasma membrane potential; details: for effect on second (delayed) decrease of bis-oxonol fluorescence: induced by compound 48/80 or antigenic stimulation
[2] = system: rat peritoneal mast cells
[3] = system: rat basophilic leukemia cells (RBL 2H3); details: RBL 2H3 cells stimulated by immunoglobulin E-antigen; read-out: concentration required to inhibit histamine secretion from RBL 2H3 cells, immunoglobulin E-antigen
guinea pig trachea = details: 10^-4 to 10^-3 M

Row | Compound | effect on second (delayed) decrease of bis-oxonol fluorescence [1] | IC50 ([2]; peritoneal cells stimulated by imunoglobulin E-antigen, read-out: IC50 of histamine secretion, imunoglobulin E-antigen) [µM] | IC50 ([2]; peritoneal cells stimulated by ionophore A23187, read-out: IC50 of histamine secretion, ionophore A23187) [µM] | IC50 ([2]; peritoneal cells stimulated by phorbol 12-myristate 13-acetate, read-out: IC50 of histamine secretion, phorbol 12-myristate 13-acetate) [µM] | IC50 ([2]; peritoneal cells stimulated by substance P, read-out: IC50 of histamine secretion, substance P) [µM] | IC50 [3] [µM] | IgE-dependent contraction of guinea pig trachea (guinea pig trachea) | contraction of guinea pig trachea induced by endogenous histamine (guinea pig trachea) | effect on first (fast) decrease of bis-oxonol fluorescence ([1]; induced by compound 48/80)
1 | C[C@@H]1O[C@@H](O[C@H]2C[C@@H](O)[C@]3(CO)[C@H]4[C@H](O)C[C@]5(C)[C@@H](C6=CC(=O)OC6)CC[C@]5(O)[C@@H]4CC[C@]3(O)C2)[C@H](O)[C@H](O)[C@H]1O [ouabain] | inhibited |  |  |  |  |  |  |  | 
2 | zinc gluconate | did not alter | 18 | 1.6 | 1.9 | 5.4 | 140 | inhibited | unable to affect | inhibited
